Test results published in publication PMC3799874 (Bioorganic & medicinal chemistry letters, 2012).
Marks after values point to notes of the source that are not given here.

Columns and labels:
[1] = molecular target: T1, rat TRPV1 heterologously expressed in Chinese hamster ovary (CHO) cells (Rattus norvegicus, UniProt O35433); format: binding
[2] = molecular target: T1, rat TRPV1 heterologously expressed in Chinese hamster ovary (CHO) cells; format: cell-based

T1 sequence (O35433 whole entry): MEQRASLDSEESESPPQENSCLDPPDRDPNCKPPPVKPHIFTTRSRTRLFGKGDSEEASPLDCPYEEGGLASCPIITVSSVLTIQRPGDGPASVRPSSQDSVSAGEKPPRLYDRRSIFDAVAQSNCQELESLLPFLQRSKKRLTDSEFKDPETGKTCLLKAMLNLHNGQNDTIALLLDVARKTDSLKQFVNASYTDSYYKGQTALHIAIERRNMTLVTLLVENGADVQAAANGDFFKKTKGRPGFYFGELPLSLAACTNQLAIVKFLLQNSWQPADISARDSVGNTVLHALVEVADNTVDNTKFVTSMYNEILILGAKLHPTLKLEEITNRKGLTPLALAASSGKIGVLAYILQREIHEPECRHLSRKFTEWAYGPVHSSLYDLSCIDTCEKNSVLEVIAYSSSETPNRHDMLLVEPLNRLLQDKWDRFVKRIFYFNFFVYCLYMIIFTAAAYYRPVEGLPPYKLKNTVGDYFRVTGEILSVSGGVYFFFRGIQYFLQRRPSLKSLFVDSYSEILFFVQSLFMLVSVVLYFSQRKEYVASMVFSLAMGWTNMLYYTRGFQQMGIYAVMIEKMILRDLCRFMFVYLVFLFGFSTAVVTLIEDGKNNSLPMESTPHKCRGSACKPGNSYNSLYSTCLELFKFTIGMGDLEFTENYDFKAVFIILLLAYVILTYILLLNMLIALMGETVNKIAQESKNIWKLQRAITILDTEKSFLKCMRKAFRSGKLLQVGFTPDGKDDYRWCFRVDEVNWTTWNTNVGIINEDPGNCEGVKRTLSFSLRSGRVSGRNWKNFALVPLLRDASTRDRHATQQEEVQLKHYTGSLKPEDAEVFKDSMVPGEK

| Structure (SMILES) | enhancement in binding affinity compared to non-methylated parent [1] | fractional calcium uptake compared with that induced by 300 nM capsaicin [2] | other results |
| --- | --- | --- | --- |
| COc1cc(C(C)C(=O)NCc2ccc(C(C)(C)C)cc2)ccc1O (stereo not shown) [8a] | 2 fold |  | enhancement in agonism compared to non-methylated parent [2]: 3 fold |
| CC(C(=O)NCc1ccc(C(C)(C)C)cc1)c1ccc(O)c(F)c1 (stereo not shown) [8b] | ca. 4.5 fold |  |  |
| CC(C(=O)NCc1ccc(C(C)(C)C)cc1)c1ccc(O)c(Cl)c1 (stereo not shown) [8c] | ~4 fold | (77%) ^a |  |
| CC(C)(C)c1ccc(CNC(=O)Cc2ccc(OCCN)c(F)c2)cc1 [10b] |  | (63%) ^a |  |
| CC(C)(C)c1ccc(CNC(=O)Cc2ccc(OCCN)c(Cl)c2)cc1 [10c] |  | (36%) ^a |  |
| CC(C(=O)NCc1ccc(C(C)(C)C)cc1)c1ccc(OCCN)c(F)c1 (stereo not shown) [14b] |  | (91%) ^a |  |
| CC(C(=O)NCc1ccc(C(C)(C)C)cc1)c1ccc(OCCN)c(Cl)c1 (stereo not shown) [14c] |  | (75%) ^a |  |
| CCCCCCCCCNC(=O)C(C)c1ccc(O)c(OC)c1 (stereo not shown) [compound 19] | 1.5–2 fold |  | enhancement in agonism compared to non-methylated parent [2]: 1.5–2 fold |
| COc1cc(C(C)C(=O)NCCCc2ccc(C)c(C)c2)ccc1O (stereo not shown) [compound 20] | 1.5–2 fold |  | enhancement in agonism compared to non-methylated parent [2]: 1.5–2 fold |
| COc1cc(C(C)C(=O)NCCCc2ccc(C)c(C)c2)ccc1OCCN (stereo not shown) [compound 22] |  |  | increase in receptor activity compared to DA-5018 [1]: ca. 2 fold |
| COc1cc(C(C)NC(=S)NCc2ccc(C(C)(C)C)cc2)ccc1O (stereo not shown) [compound 32] |  |  | reduction (loss) in binding affinity compared to non-methylated parent [1]: 3 fold |
| COc1cc(C(C)NC(=S)NCc2ccc(C(C)(C)C)cc2)ccc1OCCN (stereo not shown) [compound 36] |  |  | reduction (loss) in binding affinity compared to non-methylated parent [1]: 17 fold |
